The values that follow come from patent US20180230160A1, “2-AMINO-7A-PHENYL-3,4,4A,5,7,7A-HEXAHYDROFURO[3,4-B]PYRIDINES AS BACE1 INHIBITORS” (H. Lundbeck A/S, priority 2015, published 2018).

One data set has as its system Aβ40 peptide. The experiment in a line: Assessment of Aβ peptide levels in rat brain and plasma following BACE1 inhibition (Aβ40 ELISA). As to conditions: 3 hours post dose, vs vehicle. The data set is classed as in vivo. Here is the method: Assessment of Aβ Peptide Levels in Rat Brain and Plasma Following BACE1 Inhibition. Animals.
(§1) Young adult Male Sprague Dawley rats of approximately 250 g weight were purchased from Charles River and received 0-30 mg/kg of vehicle (10% HP betaCD+1M MeSO4, pH 2.5) or test compounds (dissolved in vehicle) only by oral gavage (p.o). The compounds are dosed at a volume of 5 ml/kg. Cohorts of 5-10 animals were established for each treatment condition.
(§2) At T=180 minutes after initial dosing the animals were stunned and decapitated with a guillotine. Trunk-blood was sampled in EDTA coated tubes after decapitation of the animal. The blood was centrifuged at 2200G at 4° C. for 15 minutes and the plasma was collected and frozen at −80° C. The blood was aliquoted for Aβ ELISA and DMPK analysis. Immediately following sacrifice, the brain was extracted and split into 2 halves. The right hemibrains were snap frozen on dry ice and stored at −80° C. The left half was dissected; with the front forebrain taken for Aβ ELISA and the remainder used for DMPK analysis. These samples were also snap frozen on dry ice and stored at −80° C. until use for analysis.
The cortex samples were thawed slightly on wet ice before they were homogenized with a small volume dispersing instrument (T10 basic ULTRA-TURRAX®) which was set at speed 5 for approximately 5-7 sec. The tissue was processed in a 10 times volume of the weight, for example 100 mg of tissue was homogenized in 1000 μL of Homogenization buffer. Homogenization buffer: 50 ml Milli Q water+50 nM NaCl+0.2% Diethylamin (DEA)+1 tablet of Complete Protease inhibitor cocktail+1 nM 4-(2-aminoethyl) benzenesulfonyl fluoride hydrochloride irreversible serine protease inhibitor (AEBSF).
After homogenization 450 μL aliquots of the samples are collected into a 1.5 ml Eppendorf tube and placed on wet ice, 0.5% NP-40 (50 ul) was added to all samples and then they were incubated on ice for 30 min. After which all samples were sonicated using an Ultrasonic homogenizer with 20 kHz homogeneous sound (SONOPLUS HD2070, Bandelin Electronic) 10 pulse set at 12-13% power to extract all the Aβ species. The samples were then centrifuged (Ole Dich 157 MPRF Micro centrifuge) at 20000G for 20 minutes at 4° C. After centrifugation 285 μL of the supernatant was pipetted into 600 μL microtubes tubes and neutralized with 15 μL of 1M Tris-HCL buffer.
WAKO 294-62501 Human/Rat Abeta amyloid (40) kit was used for all ELISA analyses. 30 μL plasma samples or 30 μL of the cortex supernatants generated as described above were placed in 600 μL microtubes tubes on wet ice. To this 30 μL of 8M urea (AppliChem A1049, 9025) was added to generate a 2-fold dilution. Both plasma and cortex supernatants were incubated on ice for 30 min. Standard rows were prepared from the standard peptide stock provided in the kit and standard diluent containing 1.6M urea (200 μL 8M urea+800 μL of standard diluent) and 0.8M urea (400 μL 8M Urea+3600 μL Standard diluent). A serial 2-fold dilution of Aβ40 from 100 pmol/ml to 0 pmol/L was prepared for the assay.
After incubation with urea, all samples were further diluted by addition of 5 times standard diluent from the Kit. This was done by adding 240 μL Standard Diluent to 60 μL sample/urea mixture, which was then mixed well. 100 μL of each diluted sample was pipetted into designated wells of the ELISA plate in duplicates. The plate was then covered and incubated overnight at 4° C. The following day, the ELISA kit was brought to room temperature before use. The incubated plate was washed 5 times with the 20× washing solution diluted in Milli Q water. 100 μL HRP-conjugate was applied to each well, and the plate was covered and incubates at 4° C. for 1 hr. The wash was repeated again for 5 times. 100 μL 3,3′,5,5′-Tetramethylbenzidine (TMB) solution was applied to each well and the plate was covered and incubated in the dark at room temperature for 30 minutes. […]
On the technique in general: In an ELISA, binding on a coated surface is turned into a signal by an enzyme label.

Data set [1] can be described thus: Compound exposure in rat brain and plasma after oral dosing (DMPK analysis). The data set is classed as in vivo. The conditions noted are these: male, Sprague Dawley, 3 hours post dose; for concentration at 3 h: read-out: Exp (exposure); for Kp at 3 h: brain/plasma, read-out: Brain/Plasma ratio. As to the method:
as §1, §2
The results of the administration of representative Compounds of Examples 1, 2, 5, […], of brain and plasma samples collected at 3 hours post dose and then following exposures, as described above, are tabulated below.

Like-named read-outs stand apart in the source and are kept apart here.

Turning to `[2H]C([2H])([2H])Oc1ccc(C(=O)Nc2ccc(F)c([C@]34COC[C@H]3C[C@@](F)(CF)C(N)=N4)c2)nc1` [Example 22, N-(3-((3S,4aS,7aS)-2-amino-3-fluoro-3-(fluoromethyl)-3,4,4a,5-tetrahydrofuro[3,4-b]pyridin-7a-yl)-4-fluorophenyl)-5-(methoxy-d3)picolinamide], the Aβ40 reduction in the data set on Aβ40 peptide (Brain, 10 mg/kg p.o.) came out at 23%; in the data set on Aβ40 peptide (Brain, 30 mg/kg p.o.), 48%; with Aβ40 peptide (Plasma, 10 mg/kg p.o.), 33%; in the data set on Aβ40 peptide (Plasma, 30 mg/kg p.o.), 43%. Besides, the concentration at 3 h was determined as 153 ng/g in data set [1] (Brain, 10 mg/kg p.o.); 776 ng/g in data set [1] (Brain, 30 mg/kg p.o.); 399 ng/g in data set [1] (Plasma, 10 mg/kg p.o.); 1830 ng/g in data set [1] (Plasma, 30 mg/kg p.o.). In addition, the Kp at 3 h in data set [1] (10 mg/kg p.o.) is 0.38; in data set [1] (30 mg/kg p.o.) it was 0.42.
As to `COc1cnc(C(=O)Nc2ccc(F)c([C@]34COC[C@@]3(F)C[C@@](C)(F)C(N)=N4)c2)cn1` [Example 7, N-(3-((3R,4aR,7aS)-2-amino-3,4a-difluoro-3-methyl-3,4,4a,5,7,7a-hexahydrofuro[3,4-b]pyridin-7a-yl)-4-fluorophenyl)-5-methoxypyrazine-2-carboxamide], the Aβ40 reduction with Aβ40 peptide (Brain, 10 mg/kg p.o.) is on record as 48%; with Aβ40 peptide (Brain, 30 mg/kg p.o.), 64%; in the data set with Aβ40 peptide (Plasma, 10 mg/kg p.o.), 42%; with Aβ40 peptide (Plasma, 30 mg/kg p.o.), 50%. The concentration at 3 h in data set [1] (Brain, 10 mg/kg p.o.) was found to be 93 ng/g; in data set [1] (Brain, 30 mg/kg p.o.), 479 ng/g; in data set [1] (Plasma, 10 mg/kg p.o.), 88 ng/g; in data set [1] (Plasma, 30 mg/kg p.o.), 239 ng/g. Moreover, the Kp at 3 h in data set [1] (10 mg/kg p.o.) is 1.05; in data set [1] (30 mg/kg p.o.), 2.01.
